Source: US6696076B2, “Immune response modifier compounds for treatment of TH2 mediated and related diseases” (3M Innovative Properties Company, priority 1996, dated 2004)

Key:
[1] = tested on: ovalbumin-induced eosinophilia in the lung; assay: Ovalbumin-induced lung eosinophilia in the guinea pig (EPO assay); assay type: in vivo; conditions: for maximum inhibition of ovalbumin-induced eosinophilia: maximum over doses and routes tested
[2] = tested on: sephadex-induced eosinophilia in the lung; assay: Sephadex-induced lung eosinophilia in rats (EPO assay); assay type: in vivo; conditions: rat; for dose capable of inhibiting sephadex-induced eosinophilia in the lung: 60 minutes prior to challenge; for maximum inhibition of sephadex-induced eosinophilia: maximum over doses and routes tested
[3] = tested on: IL-5; assay: Antigen-induced IL-5 in BAL after aerosol OVA challenge (ELISA); assay type: in vivo, mouse; conditions: 1 mg/kg, 15 minutes prior to antigen challenge, mice
Experimental: (§1) Concentrations of IL-4 were reduced in the BAL of these mice by 43% when compared to animals receiving antigen alone. […] Fourteen days after boosting animals were dosed by nebulization for 30 minutes using a 1% OVA solution. This was repeated on days 17 and 20. Twenty-four hours after the final nebulized dose animals were sacrificed and bronchoalveolar lavage (BAL) was performed using 1.0 ml of PBS containing 1% fetal bovine serum. BAL was stored at −70° C. before analyzed. Lungs were then removed and placed in 0.5% cetrimide, 0.05 M KH2PO4 for homogenization of 4×30 seconds with 30 second cooling intervals between on ice. Centrifugation was then done at 1300 rpm (400×g) for 30 minutes at 4C. Pellet was collected and resuspended in 4 ml 0.5% cetrimide, 0.05 M KH2PO4 buffer. Samples were then frozen until sonication and the EPO assessment. This was followed by sonication for 3×15 seconds with 30 second intervals on ice. BAL were analyzed by ELISA (Endogen) for IL-5 and IL-4 concentrations with data being presented as the average from 11 animals ±SEM. Results are presented as the mean of triplicate cultures ±SEM. IL-5 concentration is in pg/ml.

[4] = tested on: IL-5 production in spleen cells from OVA-sensitized CFW mice; assay: Inhibition of mouse spleen cell production of IL-5 (OVA-stimulated cultures, ELISA); assay type: cell-based; conditions: for IL-5 Concentration: 96 hr
[5] = tested on: antigen induced IL-5 production; assay: Antigen induced IL-5 production in vivo (serum, OVA-challenged sensitized mice); set-up: species or system mouse; conditions: for −24 hr IL-5: 24 hrs before OVA challenge; for −24 hr IL-5 / 0 hr IL-5: serum 7 hrs after OVA; for 0 hr IL-5: same time as OVA challenge
Experimental: CFW male mice were sensitized with OVA as described above. 14 days after the last sensitization animals were challenged with 100 μg OVA sc. […] Serum was collected 7 hrs after OVA and analyzed for IL-5 and IFN-γ concentrations. Results are expressed as the mean cytokine concentration ±SEM.

[6] = tested on: IL-4; assay: Antigen-induced IL-4 in BAL after aerosol OVA challenge (ELISA); assay type: in vivo, mouse; conditions: 1 mg/kg, 15 minutes prior to antigen challenge, mice
Experimental: as §1

[7] = tested on: antigen-induced eosinophilia in the lung; assay: Antigen-induced lung eosinophilia after aerosol OVA challenge (EPO in lung); assay type: in vivo, mouse; conditions: 1 mg/kg, 15 minutes prior to antigen challenge, mice
Experimental: as §1, with “[…] To start” for “BAL were analyzed by ELISA (Endogen) for IL-5 and IL-4 concentrations with data being presented as”, “reaction, 1 ul of 30% hydrogen peroxide was added to” for “average from 11 animals ±SEM. Results are presented as”, “cuvette. The optical density reading was measured spectrophotometrically over a 4 minute time interval at 490 nm” for “mean of triplicate cultures ±SEM. IL-5 concentration is”, “a Beckman Du-64 spectrophotometer.” for “pg/ml.”

[8] = aerosol inhalation, 0.003 mg/kg
[9] = intraperitoneal administration, 0.003 mg/kg
[10] = intraperitoneal administration, 0.01 mg/kg
[11] = intraperitoneal administration, 0.03 mg/kg
[12] = intraperitoneal administration, 3.0 mg/kg
[13] = intratracheal instillation, 0.03 mg/kg
[14] = intratracheal instillation, 0.1 mg/kg
[15] = intratracheal instillation, 0.3 mg/kg
[16] = intratracheal instillation, 0.7 mg/kg
[17] = oral administration, 30.0 mg/kg
[18] = oral administration, 0.001 mg/kg
[19] = oral administration, 0.01 mg/kg

For `Cc1nc2c(N)nc3ccccc3c2n1CC(C)(C)O` [Cmpd 1, 4-amino-α,α,-2-trimethyl-1H-imidazo[4,5-c]quinoline-1-ethanol], the “% Inhibition” value [1, 8] was 13%, the “EPO Concentration in the Lung (χ ± SE)” value [1, 8] was 0.2620 ± 0.116 and the “% Inhibition” value ([1]; aerosol inhalation, 0.01 mg/kg) was 44%. The “EPO Concentration in the Lung (χ ± SE)” value ([1]; aerosol inhalation, 0.01 mg/kg) was 0.1806 ± 0.035, the “dose capable of inhibiting ovalbumin-induced eosinophilia in the lung” value ([1]; aerosol inhalation, 15 minutes prior to challenge) was 0.01 mg/kg and the “% Inhibition” value [1, 9] was 28%. The “EPO Concentration in the Lung (χ ± SE)” value [1, 9] was 0.2435 ± 0.0515, the “% Inhibition” value [1, 10] was 54% and the “EPO Concentration in the Lung (χ ± SE)” value [1, 10] was 0.1690 ± 0.053. The “% Inhibition” value [1, 11] was 54%, the “EPO Concentration in the Lung (χ ± SE)” value [1, 11] was 0.1693 ± 0.060 and the “% Inhibition” value [1, 12] was 92%. The “EPO Concentration in the Lung (χ ± SE)” value [1, 12] was 0.0580 ± 0.018, the “dose capable of inhibiting ovalbumin-induced eosinophilia in the lung” value ([1]; intraperitoneal administration, 15 minutes prior to challenge) was 0.01 mg/kg and the “maximum inhibition of ovalbumin-induced eosinophilia” value [1] was 92%. For the same compound, the “% Inhibition” value [2, 13] was 0%, the “EPO Concentration in the Lung (χ ± SE)” value [2, 13] was 0.7107 ± 0.129 and the “% Inhibition” value [2, 14] was 9%. For the same compound, the “EPO Concentration in the Lung (χ ± SE)” value [2, 14] was 0.5030 ± 0.089, the “% Inhibition” value [2, 15] was 44% and the “EPO Concentration in the Lung (χ ± SE)” value [2, 15] was 0.3440 ± 0.201. For the same compound, the “% Inhibition” value [2, 16] was 77%, the “EPO Concentration in the Lung (χ ± SE)” value [2, 16] was 0.1967 ± 0.080 and the “dose capable of inhibiting sephadex-induced eosinophilia in the lung” value ([2]; intratracheal instillation) was ≥ 0.7 mg/kg. For the same compound, the “maximum inhibition of sephadex-induced eosinophilia” value [2] was 95%, the “% Inhibition” value ([2]; oral administration, 0.1 mg/kg) was 0% and the “EPO Concentration in the Lung (χ ± SE)” value ([2]; oral administration, 0.1 mg/kg) was 0.4240 ± 0.138. For the same compound, the “% Inhibition” value ([2]; oral administration, 0.7 mg/kg) was 64%, the “EPO Concentration in the Lung (χ ± SE)” value ([2]; oral administration, 0.7 mg/kg) was 0.1497 ± 0.030 and the “% Inhibition” value ([2]; oral administration, 1.0 mg/kg) was 87%. The “EPO Concentration in the Lung (χ ± SE)” value ([2]; oral administration, 1.0 mg/kg) was 0.0780 ± 0.039, the “% Inhibition” value ([2]; oral administration, 5.0 mg/kg) was 87% and the “EPO Concentration in the Lung (χ ± SE)” value ([2]; oral administration, 5.0 mg/kg) was 0.0790 ± 0.030. For the same compound, the “% Inhibition” value [2, 17] was 95%, the “EPO Concentration in the Lung (χ ± SE)” value [2, 17] was 0.0550 ± 0.013 and the “dose capable of inhibiting sephadex-induced eosinophilia in the lung” value ([2]; oral administration) was ≥ 0.7 mg/kg.

In the case of `CCOCc1nc2c(N)nc3ccccc3c2n1CC(C)(C)O` [Cmpd 2, 4-amino-2-ethoxymethyl-α,α-dimethyl-1H-imidazo[4,5-c]quinoline-1-ethanol], the “maximum inhibition of ovalbumin-induced eosinophilia” value [1] is reported as 96%, the “% Inhibition” value [1, 18] is reported as 19% and the “EPO Concentration in the Lung (χ ± SE)” value [1, 18] is reported as 0.1862 ± 0.030. The “% Inhibition” value [1, 19] was 49%, the “EPO Concentration in the Lung (χ ± SE)” value [1, 19] was 0.1181 ± 0.020 and the “% Inhibition” value ([1]; oral administration, 0.1 mg/kg) was 95%. For the same compound, the “EPO Concentration in the Lung (χ ± SE)” value ([1]; oral administration, 0.1 mg/kg) was 0.0118 ± 0.005, the “% Inhibition” value ([1]; oral administration, 1.0 mg/kg) was 96% and the “EPO Concentration in the Lung (χ ± SE)” value ([1]; oral administration, 1.0 mg/kg) was 0.0084 ± 0.005. For the same compound, the “dose capable of inhibiting ovalbumin-induced eosinophilia in the lung” value ([1]; oral administration, 60 minutes prior to challenge) was 0.01 mg/kg, the “IL-5 Concentration in BAL” value [3] was 13 ± 2 pg/mL and the “reduction of BAL IL-5 concentration (value in parentheses)” value [3] was 78%. For the same compound, the “IL-5 Concentration” value ([4]; OVA 100 μg/ml + IRM Compound 0.01 μg/ml, mean ±SEM) was 125 ± 46 pg/mL, the “IL-5 Concentration” value ([4]; OVA 100 μg/ml + IRM Compound 0.1 μg/ml, mean ±SEM) was 25 ± 8 pg/mL and the “IL-5 Concentration” value ([4]; OVA 100 μg/ml + IRM Compound 1 μg/ml, mean ±SEM) was 22 ± 3 pg/mL. The “IL-5 Concentration” value ([4]; OVA 100 μg/ml + IRM Compound 10 μg/ml, mean of triplicate cultures ±SEM) was 12 ± 2 pg/mL, the “inhibition of IL-5 production” value ([4]; concentrations as low as 0.01 μg/ml) was “greater than 60%” and the “inhibition of IL-5 production” value ([4]; higher concentrations (above 0.01 μg/ml)) was 100%. The “inhibition of IL-5 production” value ([5]; doses as low as 0.01 mg/kg po) was “at least 65%”, the “−24 hr IL-5” value ([5]; free-base po 0.01 mg/kg) was 78 pg/mL and the “0 hr IL-5” value ([5]; free-base po 0.01 mg/kg) was 96 pg/mL. For the same compound, the “−24 hr IL-5” value ([5]; free-base po 0.1 mg/kg) was 49 pg/mL, the “0 hr IL-5” value ([5]; free-base po 0.1 mg/kg) was 62 pg/mL and the “−24 hr IL-5” value ([5]; free-base po 1.0 mg/kg) was 38 pg/mL. For the same compound, the “0 hr IL-5” value ([5]; free-base po 1.0 mg/kg) was 40 pg/mL, the “−24 hr IL-5” value ([5]; free-base po 10.0 mg/kg) was 8 pg/mL and the “0 hr IL-5” value ([5]; free-base po 10.0 mg/kg) was 29 pg/mL. The “maximum inhibition of sephadex-induced eosinophilia” value [2] was 87%, the “% Inhibition” value [2, 18] was 0% and the “EPO Concentration in the Lung (χ ± SE)” value [2, 18] was 0.6775 ± 0.140. For the same compound, the “% Inhibition” value [2, 19] was 32%, the “EPO Concentration in the Lung (χ ± SE)” value [2, 19] was 0.4908 ± 0.070 and the “% Inhibition” value ([2]; oral administration, 0.1 mg/kg) was 84%. The “EPO Concentration in the Lung (χ ± SE)” value ([2]; oral administration, 0.1 mg/kg) was 0.2000 ± 0.060, the “% Inhibition” value ([2]; oral administration, 1.0 mg/kg) was 87% and the “EPO Concentration in the Lung (χ ± SE)” value ([2]; oral administration, 1.0 mg/kg) was 0.1824 ± 0.060. For the same compound, the “dose capable of inhibiting sephadex-induced eosinophilia in the lung” value ([2]; oral administration) was ≥ 0.01 mg/kg, the “IL-4 Concentration in BAL” value [6] was 53 ± 8 pg/mL and the “reduction of BAL IL-4 concentration (value in parentheses)” value [6] was 43%. For the same compound, the “reduction of BAL IL-4 concentration (value in parentheses)” value ([6]; listed as IRM Compound) was 42%, the “EPO Concentration in Lung” value [7] was 352 ± 30 ABS and the “inhibition of antigen-induced eosinophilia in the lung (value in parentheses)” value [7] was 78%.
